Key:
[1] = test system: imiquimod-induced psoriasis; conditions: mice; cited from earlier work
[2] = test system: delayed type hypersensitivity to methylated BSA; conditions: mice; cited from earlier work
human CD3+ T cells = conditions: 1-10 μM; anti-CD3/anti-CD28 microbead stimulation; cited from earlier work
PBMCs = assay: Immunophenotyping by flow cytometry of PBMCs of 4 metastatic cancer patients; assay type: in vivo, human; conditions: of 4 patients; after 15 days of administration
Description: (§1) 18 cancer patients completed 2 cycles of 24-470 mg/M^2 PFK-158; 5 of these patients experienced stabilization of their disease (i.e. no growth and no new tumors) and tumor regressions have been observed in multiple patients. For example, a person with renal cell carcinoma who had progressed after all available FDA-approved agents including mTOR and VEGFR inhibitors and IL-2 entered the study (470 mg/M^2). They experienced stabilization of disease by immune-related response criteria (26% reduction in maximum diameters) with multiple tumors regressing and has entered their seventh month of treatment. Of these 18 patients, immunophenotyping by flow cytometry on 4 patients' PBMCs has been carried out. These four patients were administered PFK-158 for 2 weeks and PBMCs were collected at baseline, day 15, and then analyzed by flow cytometry for CD3+CD4+il-17+ cells and CD8+CD137+ T cells.

γδT17 cells = assay: IL-17A production (ELISA) during in vitro polarization of Vγ9Vδ2 T cells; assay type: cell-based, human; conditions: PFK-158 every two days of culture, FIG. 17E,F
Excerpt: (§2) The differentiation of Th17 cells from naïve CD4^+ T cells was induced and, for γδT17 cells, naïve Vγ9Vδ2 T cells were isolated from healthy donors and polarized into IL-17 producing γ6T cells using established methods.
(§3) Human naïve CD4^+ T cells differentiated into Th17 cells or sorted human naïve Vγ9Vδ2 T cells were polarized in vitro and analyzed for PFKFB2-4 mRNA (FIG. 17 A,B), F26BP, and PFKFB3 protein (FIG. 17 C,D). The CD4^+ T cells (during in vitro Th17 differentiation) and Vγ9Vδ2 T cells (during in vitro polarization) were exposed to vehicle (DMSO) or the indicated concentrations of PFK-158 (every two days of the culture period) and IL-17A production was quantified by ELISA (FIG. 17 E,F).

[3] = test system: peripheral blood mononuclear cells; assay: Flow cytometry of peripheral blood mononuclear cells of a breast cancer patient receiving PFK-158; assay type: in vivo, human; conditions: after 1 week, persisted through treatment
Description: An unexpected stability of tumors in multiple patients receiving PFK-158 at doses that were considered to be sub-therapeutic has been observed. […] This breast adenocarcinoma patient received 96 mg/M^2 of PFK-158 every other day for three weeks followed by a one week rest—this cycle was repeated for a total of four cycles. Peripheral blood mononuclear cells were collected on days 1, 8, 15, 22 and 62 and flow cytometry was conducted for a multitude of immunosuppressive cells and activated T cells. […] These cells are the main CD8+ T cells that can infiltrate tumors and differentiate into cytolytic T cells which kill tumor cells. […]
Given the decrease in Th17 cells and increase in effector CD8^+ T cells observed after PFK-158 administration, the ability of PFK-158 to cause an increase in terminally-differentiated CD8^+ effector cells was examined. CD8^+CD57^+CD27^− TCD28^− The breast cancer patient described in Example 7 was administered PFK-158 for 1 cycle and PBMCs were collected at baseline, day 8, 15, 22, and then analyzed for CD8^+CD57^+CD27^− TCD28^− T cells and PD-1. […]
CD57 is a terminally sulfated carbohydrate that is selectively expressed on antigen-specific, and functionally competent memory/effector CD8^+ T cells. […] PBMCs were collected at baseline, day 8, 15, and 22 and CD8^+CD57^+CD27^− CD28^− T cells were analyzed for CD57 expression. […]

cancer patients = assay: Phase 1 trial of PFK-158 in cancer patients (clinical response, tolerability); assay type: in vivo
Description: A phase 1 trial of PFK-158 in cancer patients is currently being conducted at Georgetown University, UT Southwestern, Md. Anderson Cancer Center and the U. of Louisville (clinicaltrials.gov# NCT02044861). […] Institutional investigators have observed partial tumor regressions in 3 patients with ocular melanoma, ovarian cancer and renal cell carcinoma and de novo stabilization of tumor burden in 2 patients (breast and adenoid cystic carcinoma). A person with ocular melanoma was administered 24 mg/M^2 in cohort 1 of the phase 1 trial of PFK-158—a dose that is markedly lower than that required to cause the known cytotoxic effects of PFK-158. […] Over the course of six months of therapy, several of the patient's hepatic metastases first became necrotic after 2 monthly cycles (hypoattenuation appears dark on CT imaging) and then shrunk after 6 cycles (FIG. 18).
The patient was administered PFK-158 for 4 cycles and their bony metastases were deemed to be stable (FIG. 19, left two panels) and several liver metastases became necrotic (FIG. 19, right panel).
as §1

Th17 cells = assay: IL-17A production (ELISA) during in vitro Th17 differentiation; assay type: cell-based, human; conditions: PFK-158 every two days of culture, FIG. 17E,F
Excerpt: as §2, §3

Compound	development of imiquimod-induced psoriasis [1]	development of delayed type hypersensitivity to methylated BSA [2]	stimulation of F2,6BP synthesis, 2-[1-14C]-deoxy-D-glucose uptake, lactate secretion, TNF-α secretion and T cell aggregation and proliferation (human CD3+ T cells)	patients with a reduction in frequency of Th17 cells (PBMCs) [patients]	concentration reducing IL-17A, fold less than required to inhibit neoplastic and endothelial cells growth (γδT17 cells) [fold]	increase in circulating cancer-reactive CD8+/CD57+/CD27-/CD28- T cells [3] [%]	patients with de novo stabilization of tumor burden (cancer patients; breast and adenoid cystic carcinoma) [patients]	patients with partial tumor regressions (cancer patients; ocular melanoma, ovarian cancer and renal cell carcinoma) [patients]	patients with stabilization of their disease (cancer patients; of 18 cancer patients who completed 2 cycles of 24-470 mg/M^2) [patients]	reduction in maximum diameters (immune-related response criteria) (cancer patients; person with renal cell carcinoma, 470 mg/M^2) [%]	maximum tolerated dose (cancer patients; phase 1 trial, entered cohort 7, currently at 650 mg/M^2)	concentration reducing IL-17A, fold less than required to inhibit neoplastic and endothelial cells growth (Th17 cells) [fold]
O=C(C=Cc1cccnc1)c1ccncc1 [3PO, 3-(3-pyridinyl)-1-(4-pyridinyl)-2-propen-1-one]	suppressed	suppressed	markedly attenuated									
O=C(/C=C/c1ccc2ccc(C(F)(F)F)cc2n1)c1ccncc1 [PFK-158, (E)-1-(pyridyn-4-yl)-3-(7-(trifluoromethyl)quinolin-2-yl)-prop-2-en-1-one]				4	~10	36	2	3	5	26	without reaching a maximum tolerated dose	~10

Source: patent publication US20180147198A1, “COMBINATIONS OF PFKFB3 INHIBITORS AND IMMUNE CHECKPOINT INHIBITORS TO TREAT CANCER” (UNIVERSITY OF LOUISVILLE RESEARCH FOUNDATION, INC., priority 2015, published 2018)
